Data as given in US9096548B2, “Pyrazine amide compounds” (Boehringer Ingelheim International GmbH, priority 2013, dated 2015).
Counter-ions that a name gives are not always drawn.

Each compound was assayed against T1, ENaC (Epithelial Sodium Channel) (Mus musculus, UniProt Q61180+Q9WU38+Q9WU39) (assay: Ussing Chamber assay (short circuit current, amiloride sensitive I_SC)). Conditions: Ussing chamber, mouse kidney M-1 cells, short circuit current, compound added to the apical solution; read-out: IC50.
T1 construct: Mouse kidney M−1 cells were cultivated in DMEM; endogenous in cells; host or cells: Mouse kidney M-1 cells, cultivated with dexamethasone on transwell filters
T1 sequence (Q61180 1-699): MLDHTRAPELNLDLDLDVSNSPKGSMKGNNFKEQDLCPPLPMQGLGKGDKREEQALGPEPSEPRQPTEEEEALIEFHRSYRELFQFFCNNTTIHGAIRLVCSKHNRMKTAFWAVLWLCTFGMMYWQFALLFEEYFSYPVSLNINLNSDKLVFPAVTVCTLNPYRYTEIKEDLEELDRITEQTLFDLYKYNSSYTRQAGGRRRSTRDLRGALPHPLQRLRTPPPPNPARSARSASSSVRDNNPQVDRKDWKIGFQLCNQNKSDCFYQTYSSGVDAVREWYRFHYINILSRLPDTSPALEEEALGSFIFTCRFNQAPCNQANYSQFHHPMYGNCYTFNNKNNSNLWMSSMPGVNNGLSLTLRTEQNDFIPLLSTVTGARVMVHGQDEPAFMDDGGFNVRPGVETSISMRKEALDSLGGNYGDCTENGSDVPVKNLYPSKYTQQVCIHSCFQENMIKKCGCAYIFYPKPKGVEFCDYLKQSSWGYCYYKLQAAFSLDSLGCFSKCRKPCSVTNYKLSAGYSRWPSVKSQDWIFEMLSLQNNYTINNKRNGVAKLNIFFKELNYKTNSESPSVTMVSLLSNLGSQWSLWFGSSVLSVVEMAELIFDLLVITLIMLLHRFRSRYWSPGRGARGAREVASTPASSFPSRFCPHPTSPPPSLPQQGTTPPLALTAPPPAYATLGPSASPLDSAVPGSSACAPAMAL
T1 sequence (Q9WU38 1-638): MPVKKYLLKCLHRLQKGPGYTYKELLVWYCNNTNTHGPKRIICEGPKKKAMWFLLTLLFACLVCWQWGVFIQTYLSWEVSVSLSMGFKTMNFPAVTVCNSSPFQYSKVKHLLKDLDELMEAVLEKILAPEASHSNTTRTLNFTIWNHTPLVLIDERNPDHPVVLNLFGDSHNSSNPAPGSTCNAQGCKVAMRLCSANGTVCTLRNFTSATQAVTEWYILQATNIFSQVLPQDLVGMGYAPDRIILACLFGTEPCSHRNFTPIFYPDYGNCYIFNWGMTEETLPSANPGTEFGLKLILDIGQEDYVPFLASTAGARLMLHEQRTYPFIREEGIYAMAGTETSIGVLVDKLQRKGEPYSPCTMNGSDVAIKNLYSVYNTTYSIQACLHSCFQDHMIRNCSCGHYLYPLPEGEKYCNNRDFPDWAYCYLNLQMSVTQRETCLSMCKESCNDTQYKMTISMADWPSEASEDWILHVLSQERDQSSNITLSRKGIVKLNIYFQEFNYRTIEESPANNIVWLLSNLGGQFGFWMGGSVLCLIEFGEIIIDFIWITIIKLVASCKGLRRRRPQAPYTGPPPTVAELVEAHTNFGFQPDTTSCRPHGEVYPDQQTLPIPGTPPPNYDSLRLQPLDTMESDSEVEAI
T1 sequence (Q9WU39 1-655): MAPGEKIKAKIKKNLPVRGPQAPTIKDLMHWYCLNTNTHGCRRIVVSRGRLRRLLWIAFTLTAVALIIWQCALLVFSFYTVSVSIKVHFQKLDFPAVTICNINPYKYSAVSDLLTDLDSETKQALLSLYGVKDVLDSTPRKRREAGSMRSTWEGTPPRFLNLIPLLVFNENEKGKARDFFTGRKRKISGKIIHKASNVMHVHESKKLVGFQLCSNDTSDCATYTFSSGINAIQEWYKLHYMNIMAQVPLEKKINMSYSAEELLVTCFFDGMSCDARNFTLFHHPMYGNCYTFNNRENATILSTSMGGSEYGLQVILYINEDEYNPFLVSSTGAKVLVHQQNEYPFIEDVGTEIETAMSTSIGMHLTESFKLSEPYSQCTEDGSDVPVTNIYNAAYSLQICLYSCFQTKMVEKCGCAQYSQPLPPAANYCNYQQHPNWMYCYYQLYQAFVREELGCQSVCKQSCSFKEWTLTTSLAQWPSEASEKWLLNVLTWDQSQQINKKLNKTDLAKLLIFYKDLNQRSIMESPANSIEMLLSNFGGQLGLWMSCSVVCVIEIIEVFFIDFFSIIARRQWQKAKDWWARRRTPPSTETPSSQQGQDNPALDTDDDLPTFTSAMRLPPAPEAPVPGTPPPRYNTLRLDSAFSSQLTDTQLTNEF
Assay type: cell-based
Protocol: The IC50 values of the example compounds given above were determined in the Ussing Chamber assay.
Ussing Chamber: Mouse kidney M−1 cells were cultivated in DMEM containing 5% FCS and 5 μM dexamethasone for 10 to 12 days on polyester transwell filters. Filters were inserted into a teflon-coated well-plate which fit into the ussing chamber system. Prior to measurement the medium of M−1 cells was replaced with Caco-2 transport buffer (Invitrogen, Germany). During measurements, the Ussing chamber temperature was kept at 37° C. Short circuit currents (I_sc) were measured in the voltage-clamp mode with the software package Lab View for data acquisition and analysis. The transepithelial electrical resistance (TEER) was determined by the application of voltage steps of ±5 mV every 5 sec. Compounds were administered at a final concentration of 3 μM or at increasing concentrations (1-3-10 μM) to the apical solution. At the end of each experiment the amiloride sensitive I_SC was measured by adding 3 μM amiloride to the apical compartment. Results are expressed as inhibition in percent of the amiloride effect or as IC50.

Row | SMILES | IC50 [µM]
1 | COc1ccc(CCC[N+](C)(CCCc2ccc(OC)cc2)CC(C)(C)NC(=O)c2nc(Cl)c(N)nc2N)cc1 [Example 2.3] | 0.51
2 | Nc1nc(N)c(C(=O)N[C@@H]2CCC[N+](CCCc3c(F)cccc3F)(CCCc3c(F)cccc3F)C2)nc1Cl [Example 10.3, 3-[(3,5-Diamino-6-chloro-pyrazine-2-carbonyl)-amino]-1,1-bis-[3-(2,6-difluoro-phenyl)-propyl]-piperidinium chloride] | 0.047
3 | Nc1nc(N)c(C(=O)N[C@H]2CCC[N+](CCCc3ccc(OCC(=O)NCCCCO)cc3)(CCCc3ccc(OCC(=O)NCCCCO)cc3)C2)nc1Cl [Example 6.25] | 0.014
4 | CN(Cc1ccncc1)C(=O)COc1ccc(CCC[N+]2(CCCc3ccc(OCC(=O)N(C)Cc4ccncc4)cc3)CCC[C@H](NC(=O)c3nc(Cl)c(N)nc3N)C2)cc1 [Example 6.17] | 0.021
5 | Nc1nc(N)c(C(=O)N[C@H]2CCC[N+](CCCc3ccc(OCC(=O)NCC(O)CO)cc3)(CCCc3ccc(OCC(=O)NCC(O)CO)cc3)C2)nc1Cl (some centres unmarked) [Example 6.19] | 0.03
6 | CN(C)C(=O)CN(C)C(=O)COc1ccc(CCC[N+]2(CCCc3ccc(OCC(=O)N(C)CC(=O)N(C)C)cc3)CCC[C@H](NC(=O)c3nc(Cl)c(N)nc3N)C2)cc1 [Example 6.32] | 0.232
7 | COc1ccc(CCC[N+]2(CCCc3ccc(OC)cc3)CCCCC(NC(=O)c3nc(Cl)c(N)nc3N)C2)cc1 (centres unmarked) [Example 1.3] | 0.044
8 | Nc1nc(N)c(C(=O)N[C@H]2CCC[N+](CCCc3ccc(OCC(=O)OCC4COCCN4)cc3)(CCCc3ccc(OCC(=O)OCC4COCCN4)cc3)C2)nc1Cl (some centres unmarked) [Example 6.42] | 0.112
9 | COc1ccc(CCC[N+]2(CCCc3ccc(OC)cc3)CCC[C@@H](NC(=O)c3nc(Cl)c(N)nc3N)C2)cc1 [Example 1.5] | 0.038
10 | Nc1nc(N)c(C(=O)N[C@H]2CCC[N+](CCCc3ccc(OCC(=O)NCCOCCO)cc3)(CCCc3ccc(OCC(=O)NCCOCCO)cc3)C2)nc1Cl [Example 6.55] | 0.025
11 | Cn1ccnc1CNC(=O)COc1ccc(CCC[N+]2(CCCc3ccc(OCC(=O)NCc4nccn4C)cc3)CCC[C@H](NC(=O)c3nc(Cl)c(N)nc3N)C2)cc1 [Example 6.33] | 0.021
12 | Nc1nc(N)c(C(=O)N[C@H]2CCC[N+](CCCc3ccc(OCC(=O)N4CCn5ccnc5C4)cc3)(CCCc3ccc(OCC(=O)N4CCn5ccnc5C4)cc3)C2)nc1Cl [Example 6.44] | 0.088
13 | CP(C)(=O)CNC(=O)COc1ccc(CCC[N+]2(CCCc3ccc(OCC(=O)NCP(C)(C)=O)cc3)CCC[C@H](NC(=O)c3nc(Cl)c(N)nc3N)C2)cc1 [Example 6.67] | 0.131
14 | Nc1nc(N)c(C(=O)N[C@H]2CCC[N+](CCCc3ccc(OCC(=O)NCCc4cccnc4)cc3)(CCCc3ccc(OCC(=O)NCCc4cccnc4)cc3)C2)nc1Cl [Example 6.51] | 0.005
15 | CN(C)CCCN(C)C(=O)COc1ccc(CCC[N+]2(CCCc3ccc(OCC(=O)N(C)CCCN(C)C)cc3)CCCC(NC(=O)c3nc(Cl)c(N)nc3N)C2)cc1 (centres unmarked) [Example 6.8] | 0.041
16 | Cn1cnc(CNC(=O)COc2ccc(CCC[N+]3(CCCc4ccc(OCC(=O)NCc5cn(C)cn5)cc4)CCC[C@H](NC(=O)c4nc(Cl)c(N)nc4N)C3)cc2)c1 [Example 6.40] | 0.021
17 | COc1ccc(CCC[N+]2(CCc3ccccc3)CCCC(NC(=O)c3nc(Cl)c(N)nc3N)C2)cc1 (centres unmarked) [Example 3.6] | 0.06
18 | CN(C)CCNC(=O)COc1ccc(CCC[N+]2(CCCc3ccc(OCC(=O)NCCN(C)C)cc3)CCC[C@H](NC(=O)c3nc(Cl)c(N)nc3N)C2)cc1 [Example 6.14] | 0.045
19 | C[N+](C)(C)CCNC(=O)COc1ccc(CCC[N+]2(CCCc3ccc(OCC(=O)NCC[N+](C)(C)C)cc3)CCCC(NC(=O)c3nc(Cl)c(N)nc3N)C2)cc1 (centres unmarked) [Example 6.6] | 0.068

Same assay, conditions: Ussing chamber, mouse kidney M-1 cells, short circuit current; unit inferred; read-out: IC50

Row | SMILES | IC50 [µM]
20 | Nc1nc(N)c(C(=O)NC2CCC[N+](CCCc3ccc(OCC(=O)NCCOCCOCCO)cc3)(CCCc3ccc(OCC(=O)NCCOCCOCCO)cc3)C2)nc1Cl (centres unmarked) [Example 6.3, 3-[(3,5-Diamino-6-chloro-pyrazine-2-carbonyl)-amino]-1,1-bis-{3-[4-({2-[2-(2-hydroxyethoxy)-ethoxy]-ethylcarbamoyl}-methoxy)-phenyl]-propyl}-piperidinium trifluoroacetate] | 0.103
21 | COC(=O)C[C@H](C[N+](C)(CCCc1ccc(OC)cc1)CCCc1ccc(OC)cc1)NC(=O)c1nc(Cl)c(N)nc1N [Example 7.1, {(R)-2-[(3,5-Diamino-6-chloro-pyrazine-2-carbonyl)-amino]-3-methoxycarbonyl-propyl}-bis-[3-(4-methoxy-phenyl)-propyl]-methyl-ammonium chloride] | 1.3
22 | COC(=O)C[C@@H](C[N+](C)(CCCc1ccc(OC)cc1)CCCc1ccc(OC)cc1)NC(=O)c1nc(Cl)c(N)nc1N [Example 7, {(S)-2-[(3,5-Diamino-6-chloro-pyrazine-2-carbonyl)-amino]-3-methoxycarbonyl-propyl}-bis-[3-(4-methoxy-phenyl)-propyl]-methyl-ammonium chloride] | 0.021
23 | CCOc1ccc(CCC[N+]2(CCCc3ccc(OCC)cc3)CCCC(NC(=O)c3nc(Cl)c(N)nc3N)C2)cc1 (centres unmarked) [Example 9.2, 3-[(3,5-Diamino-6-chloro-pyrazine-2-carbonyl)-amino]-1,1-bis-[3-(4-ethoxy-phenyl)-propyl]-piperidinium chloride] | 0.026

Same assay, conditions: Ussing chamber, mouse kidney M-1 cells, short circuit current; value printed in the example text with μM; read-out: IC50

Row | SMILES | IC50 [µM]
24 | COc1ccc(CCC[N+](C)(CCCc2ccc(OC)cc2)C[C@H](CC(=O)O)NC(=O)c2nc(Cl)c(N)nc2N)cc1 [Example 7.2, {(S)-3-Carboxy-2-[(3,5-diamino-6-chloro-pyrazine-2-carbonyl)-amino]-propyl}-bis-[3-(4-methoxy-phenyl)-propyl]-methyl-ammonium] | 1.38
25 | Nc1nc(N)c(C(=O)NC2CCC[N+](CCCc3ccc(C(=O)NCCOCCOCCO)cc3)(CCCc3ccc(C(=O)NCCOCCOCCO)cc3)C2)nc1Cl (centres unmarked) [Example 4.2, 3-[(3,5-Diamino-6-chloro-pyrazine-2-carbonyl)-amino]-1,1-bis-[3-(4-{2-[2-(2-hydroxyethoxy)-ethoxy)]-ethylcarbamoyl}-phenyl)-propyl]-piperidinium chloride] | 0.76
26 | COc1ccc(CCC[N+]2(C)CCC(NC(=O)c3nc(Cl)c(N)nc3N)C2)cc1 (centres unmarked) [Example 3, 3-[(3,5-Diamino-6-chloro-pyrazine-2-carbonyl)-amino]-1-[3-(4-methoxy-phenyl)-propyl]-1-methyl-pyrrolidinium chloride] | 0.79
